The conditions of series [1]: compared with phosphocreatine; cited from earlier work.
Series [2] deals with malonate striatal excitotoxic lesions. The note with it: cited from earlier work; for protection against lesions in the malonate animal model: intrastriatal malonate; for ATP depletion produced by malonate in vivo: rat.
Series [3] concerns MPTP toxicity. As to the kind of experiment: MPTP toxicity in mice, earlier work of the inventors. The series is classed as in vivo. From the text: This metabolite is formed by the activity of monoamine oxidase on MPTP. Inhibitors of monoamine oxidase block the neurotoxicity of MPTP in both mice and primates. The specificity of the neurotoxic effects of MPP^+ for dopaminergic neurons appears to be due to the uptake of MPP^+ by the synaptic dopamine transporter. Blockers of this transporter prevent MPP^+ neurotoxicity. […] It binds to complex I at the retenone binding site. […] In vivo studies have shown that MPTP can deplete striatal ATP concentrations in mice.

For series [4] the following is noted: fed to mice, rats and chicks; cited from earlier work.
The subject of series [5] is creatine kinase. The settings on record: forward reaction, both in vitro and in vivo; cited from earlier work.
The test system of series [6] is MPTP induced dopaminiergic toxicity. The experiment in a line: MPTP model for Parkinson's disease, striatal dopamine, DOPAC and HVA by HPLC. The series is classed as in vivo, male Swiss Webster mice. The note with it: for neuroprotection against dopamine depletions: dose response. On the procedure:
The effect of two representative creatine compounds, creatine and cyclocreatine, were evaluated using this model. Creatine and cyclocreatine were administered in the initial pilot experiment as 1% formulation in the feed of animals, and was administered for three weeks before MPTP treatment. MPTP was administered intraperitoneally at a dose of 15 mg/kg every 2 hours for five injections. The animals then remained on either creatine or cyclocreaine supplemented diets for 1 week before sacrifice. The mice examined were male Swiss Webster mice weighing 30-35 grams obtained from Taconic Farms. Control groups recieved either normal saline or MPTP hydrochloride alone. MPTP was administered in 0.1 ml of water. The MPTP was obtained from Research Biochemicals. Eight to twelve animals were examined in each group. Following sacrifice the two striata were rapidly dissected and placed in chilled 0.1 M perchloric acid. Tissue was subsequently sonicated, and aliquots were taken for protein quantification using a fluorometer assay. Dopamine, 3,4-dihydroxyphenylacetic acid (DOPAC), and homovanillic acid (HVA) were quantified by HPLC with 16 electrode electrochemical detection. Concentrations of dopamine and metabolites were expressed as nmol/mg protein. The statistical significance of differences was determined by one-way ANOVA followed by Fisher PLSDpost-hoc test to compare group means.
A dose response study was conducted where the creatine dose was 0.25%-3.0% of the diet and cyclocreatine 0.25-1.0% of the diet.

The conditions of series [7]: cited from earlier work.
Series [8] has as its system malonate induced striatal lesions. The experiment in a line: Malonate induced striatal lesions, model for Huntington's disease. The series is classed as in vivo, rats. On the procedure: We initially examined whether oral administration of creatine or its analogue cyclocreatine could attenuate malonate lesions. Creatine was administered orally to rats in their feed at doses of 0.25-3.0% of the diet. Cyclocreatine was administered at 0.2-1.0%. Controls received unsupplemented otherwise identical diets. The compounds were administered for two weeks prior to the administration of malonate and then for a further week prior to sacrifice. Malonate was dissolved in distilled deionized water and the pH wad adjusted to 7.4 with 0.1 m HCI. Intrastriatal injections of 1.5 ul of malonate containing 3 μmol were made into the striatum at the level of the Bregma 2.4 mm lateral to the midline and 4.5 mm ventral to the dura. Animals were sacrificed at 7 days by decapitation, and the brains were quickly removed and placed in ice cold 0.9% saline solution. Brains were sectioned at 2 mm intervals. Slices were then placed posterior side down in 2% 2,3,5-triphenyltetrazolium chloride. Slices were stained in the dark at room temperature for 30 minutes and then removed and placed in 4% paraformaldehyde, pH 7.3. Lesions, noted by pale staining, were evaluated on the posterior surface of each section using a Bioquant 4 system by an experienced histologist blinded to experimental conditions. These measurements have been validated by comparing them to measurements obtained on adjacent Nissl stain sections.

For series [9] the following is noted: mice, up to 1% of diet for 2 weeks or for over 4 weeks; cited from earlier work.
Series [10] has as its system viral infections. The settings on record: 1% dietary; cited from earlier work.
For series [11] the following is noted: cited from earlier work. This is another data set of the same source.
For series [12], the system named is creatine kinase. The settings on record: cited from earlier work.
The conditions of series [13]: intravenous injection, up to 8 grams/day, patients with cardiac diseases; cited from earlier work.
Where [14] appears, read: pilot, 1% in feed, oral, FIG. 4.

In the case of “3-phosphoryl-1-carboxymethyl-2-iminoimidazolidine [cyclocreatine phosphate]”, the “stability of the P-N bond” value in [1] is “more stable than that of phosphocreatine”.
`COC1=C(OC)C(=O)C(C/C=C(\C)CC/C=C(\C)CC/C=C(\C)CC/C=C(\C)CC/C=C(\C)CC/C=C(\C)CC/C=C(\C)CC/C=C(\C)CC/C=C(\C)CCC=C(C)C)=C(C)C1=O` [Q10, coenzyme Q10]: in series [2], the “protection against lesions in the malonate animal model” value (shortened to “protection against lesions”) was “dose dependent protection” and the “ATP depletion produced by malonate in vivo” value is “attenuated”. For the same compound, the “protection against MPTP toxicity” value in series [3] was “significantly protect”.
With `NC1=NCCN1CC(=O)O` [cyclocreatine, 1-carboxymethyl-2-iminoimidazolidine], the tolerability result in [4] is given as “well-tolerated”. For the same compound, in series [5], the “phosphorylation by creatine kinase” value is listed as “phosphorylated efficiently”. In [6] (0.5% of the diet, FIG. 5), the “protection against HVA depletion” value was “not seen” and the “neuroprotection against dopamine depletions” value was “significant protection”. Also, in series [6] (dose response study, FIG. 5), the “effect on 3-4-dihydroxyphenyl acetic acid (DOPAC)” value is “neuroprotection effects” and the “effect on homovanillic acid (HVA)” value is “neuroprotection effects”. In [6] (1.0% of the diet, FIG. 5), the “neuroprotection against dopamine depletions” value is “significant protection”. In series [6] (setting [14]), the “effect against MPTP induced depletions of homovanillic acid” value is on record as “effective”, the “neuroprotection against MPTP induced dopamine depletions” value is “significant neuroprotection”, the “neuroprotective effect compared with creatine” value is “greater than that seen with creatine alone” and the “protection against DOPAC depletions induced by MPTP” value is “significantly protected”. For the same compound, the growth result in series [7] (in vivo) was “grew more slowly than control chicks”. The mortality entry in series [7] (newly hatched chicks, diet containing 1%, in the presence of antibiotics) is given as “without significant mortality”. The “neuroprotection against malonate induced striatal lesions” value in series [8] (dose of 1% in the diet, FIG. 2) is “significant”. Further, the “neuroprotection against malonate induced striatal lesions, dose response” value in [8] (increasing doses in the diet: creatine 0.25-3%, cyclocreatine 0.2-1.0%, FIG. 2) is on record as “dose dependent neuroprotective effects”. For the same compound, in series [8] (initial pilot experiment, oral supplementation in feed, FIG. 1), the “protection against striatal malonate lesions (lesion volume)” value is “protected against striatal malonate lesions”. In addition, the gross adverse effects result in series [9] was “without gross adverse effects”. In addition, the antiviral activity entry in [10] was “observed”. Moreover, in series [11] (feeding animals e.g. 1% dietary), the “accumulation in different organs” value was “mM concentrations”. Also, the tissue uptake result in series [11] (rats receiving dietary 1%) is “taken up by muscle, heart and brain”.
Consider `N=C(N)N(CC(=O)O)CC1CO1` (stereo not shown) [epoxycreatine], for which the “inactivation of creatine kinase” value in series [12] is “completely and irreversibly inactivate”.
With `Nc1nnc(-c2cccc(Cl)c2Cl)c(N)n1` [lamotrigine], the “protection against lesions” value in series [2] is listed as “attenuates the lesions”.
For the compound `NC(=O)c1cccnc1` [nicotinimide], in series [2], the “protection against lesions” value was “dose dependent protection” and the “ATP depletion produced by malonate in vivo” value is “attenuated”.
On to `O=C(O)CCC(=O)O` [succinate], for which the “malonate lesions on co-injection” value in [2] (co-injection with malonate) is given as “blocks the lesions”.
As to “N-phosphoryl creatine [creatine phosphate]”, the adverse side effects result in series [13] is listed as “no adverse side effects”.
For the compound isoepoxycreatine, the “inactivation of creatine kinase” value in series [12] is “completely and irreversibly inactivate”.

The record behind these values is patent publication US6706764B2, “Use of creatine or creatine analogs for the treatment of diseases of the nervous system” (Avicena Group, Inc., priority 1994, dated 2004).
